Source: patent US20230321086A1, “METHODS AND MATERIALS FOR INHIBITING NICOTINAMIDE PHOSPHORIBOSYLTRANSFERASE ACTIVITY” (Universiy of Pittsburgh - Of the Commonwealth System of …, priority 2020, published 2023)

Key:
A431 cells = experiment: Assay for total NADH and NAD+ measurements in cells; type: cell-based; parameters: C: change in NAD levels in response to test compound, shown as % of NAD activity in the absence of test compound: concentration or dose not given beside the values; conditions: percent of NAD level of untreated control cells (100 = no change)
Description: 2,000 cells/well and, at the same time, test compounds dissolved in media at the desired concentration were added to each well. The treated cells were incubated overnight in C02 incubator. The cells were washed 6 times with PBS with 1 mM CaCl2) and 1 mM MgCl2. In the last wash, 10 μL of PBS with 1 mM CaCl2) and 1 mM MgCl2 per well were left in each well. Immediately thereafter, 10 μL 0.4% dodecyltrimethylammonium bromide (DTAB) in phosphate buffer pH 8.0 as added, and the plates were shaked at 1000 rpm for 5 minutes. 60 μL reaction mix was added, and fluorescence at Ex/Em 530/585 was immediately monitored. A linear increase should be achieved with 8 cycles every 92 seconds, 10 number of flashes/well/cycle. The reaction mix was prepared per the following table, respecting the amount and order in which each component was added:
All assays were performed in A431 cells. Referring to the tables below, activity: “+” ≥25 μM, “++” ≥1 μM and <25 μM, and “+++”<1 μM.
(§1) In each table header, A: NAMPT enzyme inhibitory activity, IC50 (μM); B: Cellular NAD inhibitory activity, IC50 (μM); and C: change in NAD levels in response to test compound, shown as % of NAD activity in the absence of test compound. […] A percentage of 100 percent would indicate no increase or decrease in NAD levels as compared to that measured for untreated control cells, while a percentage of 50 percent would indicate a decrease in NAD levels of 50 percent as compared to that measured for untreated control cells.

NAMPT = NAMPT (Homo sapiens, UniProt P43490); experiment: Assay for in vitro NAMPT activity via NMN assessment; type: biochemical; conditions: read-out: A: NAMPT enzyme inhibitory activity, IC50
Description: The following were added to a well: 20 μL 2× test compound in Basic Buffer (0.02% BSA, 2 mM DTT, 12 mM MgCl2, 50 mM Tris pH7.5); 10 μL 8 μg/mL NAMPT, and 200 μM PRPP working solution (or PRPP working solution to background wells). 10 μL 100 μM NAM working solution was added to start the reaction. The plate was sealed and incubated for 45 minutes at 37° C. After incubation, 10 μL 20% acetophenone in DMSO, 10 μL 2N KOH, and 20 μL 88% formic acid were added. The plate was sealed and incubated for 30 minutes at 37° C. After incubation, fluorescence at Ex/Em 387/441 was read.
as §1

NAMPT, sequence (P43490 whole entry, species assumed): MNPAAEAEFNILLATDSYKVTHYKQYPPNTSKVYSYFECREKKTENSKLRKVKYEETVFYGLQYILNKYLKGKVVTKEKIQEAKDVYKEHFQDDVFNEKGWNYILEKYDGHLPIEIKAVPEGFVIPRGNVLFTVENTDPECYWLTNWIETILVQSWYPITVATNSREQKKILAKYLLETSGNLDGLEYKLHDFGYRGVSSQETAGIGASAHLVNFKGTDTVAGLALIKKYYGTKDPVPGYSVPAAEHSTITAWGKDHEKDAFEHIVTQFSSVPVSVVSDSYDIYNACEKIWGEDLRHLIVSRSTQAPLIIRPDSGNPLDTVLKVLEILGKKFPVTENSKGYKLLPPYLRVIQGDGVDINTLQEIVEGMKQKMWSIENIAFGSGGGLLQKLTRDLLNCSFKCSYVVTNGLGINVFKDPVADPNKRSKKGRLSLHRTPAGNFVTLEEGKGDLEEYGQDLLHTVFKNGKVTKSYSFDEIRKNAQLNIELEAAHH

SMILES	C: change in NAD levels in response to test compound, shown as % of NAD activity in the absence of test compound (A431 cells)	IC50 (NAMPT)
O=C(NCCO)Nc1ccc2nc(-c3ccc(F)cc3)c(-c3ccc(F)cc3)nc2c1 [BC19566]	77%	
O=C(NCCN1CCOCC1)Nc1ccc2nc(-c3ccc(F)cc3)c(-c3ccc(F)cc3)nc2c1 [BC19567]	46%	
O=C(Nc1ccc2nc(-c3ccc(F)cc3)c(-c3ccc(F)cc3)nc2c1)NC1CC1 [BC19568]	81%	
O=C(NCC1CC1)Nc1ccc2nc(-c3ccc(F)cc3)c(-c3ccc(F)cc3)nc2c1 [BC19569]	57%	
O=C(NCc1ccccn1)Nc1ccc2nc(-c3ccc(F)cc3)c(-c3ccc(F)cc3)nc2c1 [BC19570]	29%	
O=C(NCc1cccnc1)Nc1ccc2nc(-c3ccc(F)cc3)c(-c3ccc(F)cc3)nc2c1 [BC19571]	10%	
O=C(NCc1ccncc1)Nc1ccc2nc(-c3ccc(F)cc3)c(-c3ccc(F)cc3)nc2c1 [BC19572]	26%	
CN(C)CCCNC(=O)Nc1ccc2nc(-c3ccc(F)cc3)c(-c3ccc(F)cc3)nc2c1 [BC19573]	11%	
COCCCNC(=O)Nc1ccc2nc(-c3ccc(F)cc3)c(-c3ccc(F)cc3)nc2c1 [BC19574]	61%	
O=C(NCCCO)Nc1ccc2nc(-c3ccc(F)cc3)c(-c3ccc(F)cc3)nc2c1 [BC19575]	78%	
O=C(NCCCN1CCOCC1)Nc1ccc2nc(-c3ccc(F)cc3)c(-c3ccc(F)cc3)nc2c1 [BC19576]	61%	
CN1CCN(Cc2ccc3nc(-c4ccc(F)cc4)c(-c4ccc(F)cc4)nc3c2)CC1 [BC19577]	41%	
CN1CCN(C(=O)c2ccc3nc(-c4ccc(F)cc4)c(Nc4ccc(F)cc4)nc3c2)CC1 [BC19578]	89%	
CN1CCN(CCNC(=O)Nc2ccc3nc(-c4ccc(F)cc4)c(-c4ccc(F)cc4)nc3c2)CC1 [BC19616]	31%	
O=C(NCCCN1CCCC1=O)Nc1ccc2nc(-c3ccc(F)cc3)c(-c3ccc(F)cc3)nc2c1 [BC19617]	58%	
CNc1ncc(-c2ccc3nc(-c4ccc(F)cc4)c(-c4ccc(F)cc4)nc3c2)o1 [BC19619]	55%	
CN1CCN(C(=O)C2CCc3nc(-c4ccc(F)cc4)c(-c4ccc(F)cc4)nc3C2)CC1 (stereo not drawn) [BC19663]	18%	
OCCCn1c(-c2ccc3nc(-c4ccc(F)cc4)c(-c4ccc(F)cc4)nc3c2)n[nH]c1=S [BC19664]	70%	
OCCCn1cnnc1-c1ccc2nc(-c3ccc(F)cc3)c(-c3ccc(F)cc3)nc2c1 [BC19665]	58%	

SMILES	C: change in NAD levels in response to test compound, shown as % of NAD activity in the absence of test compound (A431 cells)	IC50 (NAMPT)
CN1CCN(C(=O)c2cc3nc(-c4ccc(F)cc4)c(-c4ccc(F)cc4)nc3cn2)CC1 [BC19666]	70%	
Cn1oc(-c2ccc3nc(-c4ccc(F)cc4)c(-c4ccc(F)cc4)nc3c2)cc1=O [BC19667]	38%	
C/N=C(\c1ccc2nc(-c3ccc(F)cc3)c(-c3ccc(F)cc3)nc2c1)N1CCN(C)CC1 [BC19668]	31%	
CN1CCN(C(=O)C2Cc3nc(-c4ccc(F)cc4)c(-c4ccc(F)cc4)nc3C2)CC1 [BC19723]	54%	
O=C(NCCN1CCCC1)c1cnc2nc(-c3ccc(F)cc3)c(-c3ccc(F)cc3)nc2c1 [BC20202]		≥ 25 µM
O=C(NCc1cccnc1)c1cnc2nc(-c3ccc(F)cc3)c(-c3ccc(F)cc3)nc2c1 [BC20203]		1 to 25 µM
O=C(NCc1ccncc1)c1cnc2nc(-c3ccc(F)cc3)c(-c3ccc(F)cc3)nc2c1 [BC20204]		≥ 25 µM
O=C(NCCc1ccncc1)c1cnc2nc(-c3ccc(F)cc3)c(-c3ccc(F)cc3)nc2c1 [BC20206]		< 1 µM
O=C(NCc1ccccc1)Nc1cnc2nc(-c3ccc(F)cc3)c(-c3ccc(F)cc3)nc2c1 [BC20207]		≥ 25 µM
CC(=O)Nc1cccc(-c2nc3cc(C(=O)N4CCN(C)CC4)ccc3nc2-c2ccc(F)cc2)c1 [BC20208]		≥ 25 µM
COCC(=O)Nc1cccc(-c2nc3cc(C(=O)N4CCN(C)CC4)ccc3nc2-c2ccc(F)cc2)c1 [BC20209]		≥ 25 µM
CN1CCN(C(=O)c2ccc3nc(-c4ccc(F)cc4)c(-c4cccc(NS(C)(=O)=O)c4)nc3c2)CC1 [BC20210]		≥ 25 µM
C#CCNC(=O)c1ccc2nc(-c3ccc(F)cc3)c(-c3cccc(NC(=O)COC)c3)nc2c1 [BC20211]		≥ 25 µM
C#CCNC(=O)c1ccc2nc(-c3ccc(F)cc3)c(-c3cccc(NS(C)(=O)=O)c3)nc2c1 [BC20212]		≥ 25 µM
C#CCNC(=O)c1ccc2nc(-c3ccc(F)cc3)c(-c3cccc(NC(=O)CN(C)C)c3)nc2c1 [BC20214]		≥ 25 µM
CN(C)Cc1cccc(-c2nc3cc(C(=O)N4CCN(C)CC4)ccc3nc2-c2ccc(F)cc2)c1 [BC20215]		≥ 25 µM
CC(=O)N1CCCC(NC(=O)Nc2ccc3nc(-c4ccc(F)cc4)c(-c4ccc(F)cc4)nc3c2)C1 (stereo not drawn) [BC20217]		1 to 25 µM
O=C1NCCCN1c1ccc2nc(-c3ccc(F)cc3)c(-c3ccc(F)cc3)nc2c1 [BC20218]		≥ 25 µM
O=C1N(Cc2cccnc2)CCCN1c1ccc2nc(-c3ccc(F)cc3)c(-c3ccc(F)cc3)nc2c1 [BC20219]		≥ 25 µM

SMILES	C: change in NAD levels in response to test compound, shown as % of NAD activity in the absence of test compound (A431 cells)	IC50 (NAMPT)
C#CCNC(=O)c1ccc2nc(-c3ccc(F)cc3)c(-c3cccc(CO)c3)nc2c1 [BC20220]		≥ 25 µM
COCC(=O)Nc1cccc(-c2nc3ccc(C(=O)N4CCN(C)CC4)cc3nc2-c2cccc(NC(=O)COC)c2)c1 [BC20221]		≥ 25 µM
C#CCNC(=O)c1ccc2nc(-c3ccc(F)cc3)c(-c3cccc(NC(C)=O)c3)nc2c1 [BC20222]		≥ 25 µM
C#CCNC(=O)c1ccc2nc(-c3ccc(F)cc3)c(-c3cccc(CN4CCCC4)c3)nc2c1 [BC20223]		≥ 25 µM
O=C(Nc1ccc2nc(-c3ccc(F)cc3)c(-c3ccc(F)cc3)nc2c1)NC1CCCNC1 (stereo not drawn) [BC20225]		≥ 25 µM
O=C1N(Cc2ccncc2)CCCN1c1ccc2nc(-c3ccc(F)cc3)c(-c3ccc(F)cc3)nc2c1 [BC20226]		1 to 25 µM
C#CCNC(=O)c1ccc2nc(-c3cccc(NC(C)=O)c3)c(-c3cccc(NC(C)=O)c3)nc2c1 [BC20227]		≥ 25 µM
C#CCNC(=O)c1ccc2nc(-c3cccc(NC(=O)COC)c3)c(-c3cccc(NC(=O)COC)c3)nc2c1 [BC20228]		≥ 25 µM
CN(C)CC(=O)Nc1cccc(-c2nc3cc(C(=O)N4CCN(C)CC4)ccc3nc2-c2ccc(F)cc2)c1 [BC20229]		≥ 25 µM
CC(=O)NCc1cccc(-c2nc3cc(C(=O)N4CCN(C)CC4)ccc3nc2-c2ccc(F)cc2)c1 [BC20230]		≥ 25 µM
CN1CCN(C(=O)c2ccc3nc(-c4ccc(F)cc4)c(-c4cccc(CNS(C)(=O)=O)c4)nc3c2)CC1 [BC20231]		≥ 25 µM
CN1CCN(Cc2cccc(-c3nc4cc(C(=O)N5CCN(C)CC5)ccc4nc3-c3ccc(F)cc3)c2)CC1 [BC20232]		≥ 25 µM
C#CCNC(=O)c1ccc2nc(-c3ccc(F)cc3)c(-c3cccc(CN(C)C)c3)nc2c1 [BC20233]		≥ 25 µM
C#CCNC(=O)c1ccc2nc(-c3cccc(CN(C)C)c3)c(-c3ccc(F)cc3)nc2c1 [BC20234]		≥ 25 µM
O=C(NCc1cccnc1)NCc1ccc2nc(-c3ccc(F)cc3)c(-c3ccc(F)cc3)nc2c1 [BC20236]		1 to 25 µM
CN1CCCC(NC(=O)Nc2ccc3nc(-c4ccc(F)cc4)c(-c4ccc(F)cc4)nc3c2)C1 (stereo not drawn) [BC20237]		≥ 25 µM
CS(=O)(=O)N1CCCC(NC(=O)Nc2ccc3nc(-c4ccc(F)cc4)c(-c4ccc(F)cc4)nc3c2)C1 (stereo not drawn) [BC20238]		1 to 25 µM
CC(=O)N1CCCC(NC(=O)Nc2cnc3nc(-c4ccc(F)cc4)c(-c4ccc(F)cc4)nc3c2)C1 (stereo not drawn) [BC20239]		≥ 25 µM
CN1CCN(C(=O)c2ccc3nc(-c4ccc(F)cc4)c(-c4cccc(CO)c4)nc3c2)CC1 [BC20240]		≥ 25 µM
